Experimental data as given in PubChem BioAssay AID1963979 (Molecular Pharmacology Branch, DTP, NCI, 2024).
Where “and” joins values, the source holds several entries; their conditions need not be identical. Equal entries are not always repeated.

System: 361931-004-R-J1-PDC multicell spheroid viability
Assay: Anticancer human tumor 361931-004-R-J1-PDC patient-derived colon adenocarcinoma cell line growth inhibition [PI3K]
Settings: for viability, T/C: stronger effect = lower value
Procedure, shortened: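 Multi-cell spheroids combine tumor cells with HUVEC and human MSCs, treated with targeted agents alone or with inavolisib, alpelisib, duvelisib or copanlisib. Concentrations fall in half-log steps from at or near clinical Cmax, or from 10 microM where Cmax is unknown; viability read-out.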

[1] = curve of first compound, second compound 0.00316 µM
[2] = curve of first compound, second compound 0.01 µM
[3] = curve of first compound, second compound 0.0316 µM
[4] = curve of first compound, second compound 0.1 µM
[5] = curve of first compound, second compound 0.316 µM
[6] = curve of first compound, second compound 1 µM
[7] = second compound 0.00316 µM, first compound 0.0316 µM
[8] = second compound 0.00316 µM, first compound 0.1 µM
[9] = second compound 0.00316 µM, first compound 0.316 µM
[10] = second compound 0.00316 µM, first compound 1 µM
[11] = second compound 0.00316 µM, first compound 3.16 µM
[12] = second compound 0.00316 µM, first compound 10 µM
[13] = second compound 0.01 µM, first compound 0.0316 µM
[14] = second compound 0.01 µM, first compound 0.1 µM
[15] = second compound 0.01 µM, first compound 0.316 µM
[16] = second compound 0.01 µM, first compound 1 µM
[17] = second compound 0.01 µM, first compound 3.16 µM
[18] = second compound 0.01 µM, first compound 10 µM
[19] = second compound 0.0316 µM, first compound 0.0316 µM
[20] = second compound 0.0316 µM, first compound 0.1 µM
[21] = second compound 0.0316 µM, first compound 0.316 µM
[22] = second compound 0.0316 µM, first compound 1 µM
[23] = second compound 0.0316 µM, first compound 3.16 µM
[24] = second compound 0.0316 µM, first compound 10 µM
[25] = second compound 0.1 µM, first compound 0.0316 µM
[26] = second compound 0.1 µM, first compound 0.1 µM
[27] = second compound 0.1 µM, first compound 0.316 µM
[28] = second compound 0.1 µM, first compound 1 µM
[29] = second compound 0.1 µM, first compound 3.16 µM
[30] = second compound 0.1 µM, first compound 10 µM
[31] = second compound 0.316 µM, first compound 0.0316 µM
[32] = second compound 0.316 µM, first compound 0.1 µM
[33] = second compound 0.316 µM, first compound 0.316 µM
[34] = second compound 0.316 µM, first compound 1 µM
[35] = second compound 0.316 µM, first compound 3.16 µM
[36] = second compound 0.316 µM, first compound 10 µM
[37] = second compound 1 µM, first compound 0.0316 µM
[38] = second compound 1 µM, first compound 0.1 µM
[39] = second compound 1 µM, first compound 0.316 µM
[40] = second compound 1 µM, first compound 1 µM
[41] = second compound 1 µM, first compound 3.16 µM
[42] = second compound 1 µM, first compound 10 µM
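Note: spheroids exposed to agents for seven days before readout.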

## CC(Cn1ccc(-c2ccc(C#N)c(Cl)c2)n1)NC(=O)c1cc(C(C)O)[nH]n1 (stereo not given) + CC(Nc1ccc2c(c1)OCCn1cc(N3C(=O)OCC3C(F)F)nc1-2)C(N)=O
[1]
  IC50: > 10000 nM
[2]
  IC50: > 10000 nM
[3]
  IC50: > 10000 nM
[4]
  IC50: > 10000 nM
[5]
  IC50: > 10000 nM
[6]
  IC50: > 10000 nM
[7]
  viability, T/C: 103%
[8]
  viability, T/C: 106%
[9]
  viability, T/C: 109%
[10]
  viability, T/C: 110%
[11]
  viability, T/C: 92.2%
[12]
  viability, T/C: 102%
[13]
  viability, T/C: 98.3%
[14]
  viability, T/C: 113%
[15]
  viability, T/C: 102%
[16]
  viability, T/C: 93.7%
[17]
  viability, T/C: 110%
[18]
  viability, T/C: 98.6%
[19]
  viability, T/C: 102%
[20]
  viability, T/C: 103%
[21]
  viability, T/C: 105%
[22]
  viability, T/C: 111%
[23]
  viability, T/C: 104%
[24]
  viability, T/C: 90.3%
[25]
  viability, T/C: 96%
[26]
  viability, T/C: 99.2%
[27]
  viability, T/C: 93.5%
[28]
  viability, T/C: 97.5%
[29]
  viability, T/C: 79.3%
[30]
  viability, T/C: 72%
[31]
  viability, T/C: 97.8%
[32]
  viability, T/C: 92.1%
[33]
  viability, T/C: 98.8%
[34]
  viability, T/C: 93.9%
[35]
  viability, T/C: 86.1%
[36]
  viability, T/C: 86.8%
[37]
  viability, T/C: 82.2%
[38]
  viability, T/C: 75.9%
[39]
  viability, T/C: 80.2%
[40]
  viability, T/C: 85.8%
[41]
  viability, T/C: 70.6%
[42]
  viability, T/C: 57.5%

## CC(=O)c1c(C)c2cnc(Nc3ccc(N4CCNCC4)cn3)nc2n(C2CCCC2)c1=O
Compound 0.000316 µM
  viability, T/C: 103% [middle of 4 runs]
Compound 0.001 µM
  viability, T/C: 105% [middle of 4 runs]
Compound 0.00316 µM
  viability, T/C: 100% [middle of 4 runs]
Compound 0.01 µM
  viability, T/C: 103% [middle of 4 runs]
Compound 0.0316 µM
  viability, T/C: 108% (2×) and 92.8% and 104%
Compound 0.1 µM
  viability, T/C: 86.5% [middle of 4 runs]
Curve of compound
  IC50: > 100 nM

## CC(=O)c1c(C)c2cnc(Nc3ccc(N4CCNCC4)cn3)nc2n(C2CCCC2)c1=O + Cc1nc(NC(=O)N2CCCC2C(N)=O)sc1-c1ccnc(C(C)(C)C(F)(F)F)c1
[3]
  IC50: > 100 nM
[4]
  IC50: > 100 nM
[5]
  IC50: > 100 nM
[6]
  IC50: > 100 nM
Curve of first compound, second compound 3.16 µM
  IC50: > 100 nM
Curve of first compound, second compound 10 µM
  IC50: 56.4 nM
Second compound 0.0316 µM, first compound 0.000316 µM
  viability, T/C: 110%
Second compound 0.0316 µM, first compound 0.001 µM
  viability, T/C: 105%
Second compound 0.0316 µM, first compound 0.00316 µM
  viability, T/C: 101%
Second compound 0.0316 µM, first compound 0.01 µM
  viability, T/C: 98.7%
[19]
  viability, T/C: 99.6%
[20]
  viability, T/C: 78.2%
Second compound 0.1 µM, first compound 0.000316 µM
  viability, T/C: 109%
Second compound 0.1 µM, first compound 0.001 µM
  viability, T/C: 106%
Second compound 0.1 µM, first compound 0.00316 µM
  viability, T/C: 96.8%
Second compound 0.1 µM, first compound 0.01 µM
  viability, T/C: 94.8%
[25]
  viability, T/C: 90.7%
[26]
  viability, T/C: 81.5%
Second compound 0.316 µM, first compound 0.000316 µM
  viability, T/C: 106%
Second compound 0.316 µM, first compound 0.001 µM
  viability, T/C: 96.6%
Second compound 0.316 µM, first compound 0.00316 µM
  viability, T/C: 104%
Second compound 0.316 µM, first compound 0.01 µM
  viability, T/C: 97.8%
[31]
  viability, T/C: 83.1%
[32]
  viability, T/C: 83%
Second compound 1 µM, first compound 0.000316 µM
  viability, T/C: 97%
Second compound 1 µM, first compound 0.001 µM
  viability, T/C: 93.3%
Second compound 1 µM, first compound 0.00316 µM
  viability, T/C: 84.9%
Second compound 1 µM, first compound 0.01 µM
  viability, T/C: 91.9%
[37]
  viability, T/C: 90.2%
[38]
  viability, T/C: 65.2%
Second compound 3.16 µM, first compound 0.000316 µM
  viability, T/C: 80.7%
Second compound 3.16 µM, first compound 0.001 µM
  viability, T/C: 70.6%
Second compound 3.16 µM, first compound 0.00316 µM
  viability, T/C: 76.5%
Second compound 3.16 µM, first compound 0.01 µM
  viability, T/C: 77.7%
Second compound 3.16 µM, first compound 0.0316 µM
  viability, T/C: 65.7%
Second compound 3.16 µM, first compound 0.1 µM
  viability, T/C: 52.6%
Second compound 10 µM, first compound 0.000316 µM
  viability, T/C: 66.7%
Second compound 10 µM, first compound 0.001 µM
  viability, T/C: 75.9%
Second compound 10 µM, first compound 0.00316 µM
  viability, T/C: 65%
Second compound 10 µM, first compound 0.01 µM
  viability, T/C: 58.4%
Second compound 10 µM, first compound 0.0316 µM
  viability, T/C: 56.5%
Second compound 10 µM, first compound 0.1 µM
  viability, T/C: 45.1%

## CCN1CCN(Cc2ccc(Nc3ncc(F)c(-c4cc(F)c5nc(C)n(C(C)C)c5c4)n3)nc2)CC1
Compound 0.00316 µM
  viability, T/C: 104% (2×) and 94% and 103%
Compound 0.01 µM
  viability, T/C: 105% [middle of 4 runs]
Compound 0.1 µM
  viability, T/C: 101% [middle of 4 runs]
Curve of compound
  IC50: > 1000 nM

## CC1(C)CCC(Nc2ncc(C(F)(F)F)c(-c3c[nH]c4c(P(C)(C)=O)c(C#N)ccc34)n2)CN1 (stereo not given)
Compound 0.1 µM
  viability, T/C: 94.6% [middle of 4 runs]
Compound 10 µM
  viability, T/C: 12.9% [middle of 4 runs]
Curve of compound
  IC50: 5.63 µM [middle of 4 runs]

## C#Cc1c(F)ccc2cc(O)cc(-c3ncc4c(N5CC6CCC(C5)N6)nc(OCC56CCCN5CC(F)C6)nc4c3F)c12 (stereo not given) + COc1c(OCCCN2CCOCC2)ccc2c3n(c(=NC(=O)c4cnc(N)nc4)nc12)CCN3
[1]
  IC50: > 10000 nM
[2]
  IC50: > 10000 nM
[3]
  IC50: > 10000 nM
[4]
  IC50: 5650 nM
[5]
  IC50: 101 nM
[6]
  IC50: < 31.6 nM
[7]
  viability, T/C: 105%
[8]
  viability, T/C: 108%
[9]
  viability, T/C: 98.1%
[10]
  viability, T/C: 91.9%
[11]
  viability, T/C: 101%
[12]
  viability, T/C: 84.9%
[13]
  viability, T/C: 107%
[14]
  viability, T/C: 106%
[15]
  viability, T/C: 99.1%
[16]
  viability, T/C: 91%
[17]
  viability, T/C: 88.8%
[18]
  viability, T/C: 73%
[19]
  viability, T/C: 91.5%
[20]
  viability, T/C: 96.2%
[21]
  viability, T/C: 85.9%
[22]
  viability, T/C: 72.5%
[23]
  viability, T/C: 67.2%
[24]
  viability, T/C: 51.5%
[25]
  viability, T/C: 80.6%
[26]
  viability, T/C: 69.9%
[27]
  viability, T/C: 68.5%
[28]
  viability, T/C: 61.8%
[29]
  viability, T/C: 54.6%
[30]
  viability, T/C: 45.7%
[31]
  viability, T/C: 54.5%
[32]
  viability, T/C: 51.9%
[33]
  viability, T/C: 42.3%
[34]
  viability, T/C: 37.3%
[35]
  viability, T/C: 33.6%
[36]
  viability, T/C: 23%
[37]
  viability, T/C: 18.4%
[38]
  viability, T/C: 17.6%
[39]
  viability, T/C: 14.9%
[40]
  viability, T/C: 12.1%
[41]
  viability, T/C: 9.63%
[42]
  viability, T/C: 8.02%
